In ChEMBL document CHEMBL4368864, “The transition to magic bullets - transition state analogue drug design” (Medchemcomm, 2018) one finds Ki and bioavailability data, which are given here for nine molecules.

pKi: −log10 of the molar value.

In series [1] the target is T1, Purine nucleoside phosphorylase (Bos taurus, UniProt P55859).
T1 sequence (P55859 whole entry): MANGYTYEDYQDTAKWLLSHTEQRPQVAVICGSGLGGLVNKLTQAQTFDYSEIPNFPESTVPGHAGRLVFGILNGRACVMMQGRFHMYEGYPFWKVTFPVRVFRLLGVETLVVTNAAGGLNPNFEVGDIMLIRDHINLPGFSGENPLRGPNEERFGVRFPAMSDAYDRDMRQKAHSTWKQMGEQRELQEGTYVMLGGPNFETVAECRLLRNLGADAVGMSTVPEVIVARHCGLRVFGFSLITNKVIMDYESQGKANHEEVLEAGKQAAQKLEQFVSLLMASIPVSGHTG
The series is described as follows: Inhibition of bovine spleen PNP using inosine as substrate by xanthine oxidase coupled assay.

Series [2] concerns the target T2, Purine nucleoside phosphorylase (Homo sapiens, UniProt P00491).
T2 sequence (P00491 whole entry): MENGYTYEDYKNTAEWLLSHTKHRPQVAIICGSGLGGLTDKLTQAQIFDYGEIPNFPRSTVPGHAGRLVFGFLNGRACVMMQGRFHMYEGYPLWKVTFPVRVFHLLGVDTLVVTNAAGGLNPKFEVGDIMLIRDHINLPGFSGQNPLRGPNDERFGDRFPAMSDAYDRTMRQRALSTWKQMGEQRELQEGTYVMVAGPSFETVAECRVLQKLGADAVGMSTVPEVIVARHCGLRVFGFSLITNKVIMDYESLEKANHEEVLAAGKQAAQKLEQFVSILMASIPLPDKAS
The series is described as follows: Inhibition of human PNP using inosine as substrate by xanthine oxidase coupled assay.

Series [3] is described as follows: Inhibition of Crithidia fasciculata nucleoside hydrolase.
Series [4] addresses T2, Purine nucleoside phosphorylase. The series is described as follows: Inhibition of human PNP.
Series [5] in a line: Oral bioavailability in mouse. The class given is ADME, organism-based. As to conditions: in vivo.

The term pKi denotes −log10 of the Ki, conventionally taken in molar units. The low end stands for a high Ki, the high end for a low Ki. For the molecule `Nc1ncnc2c([C@@H]3N[C@H](CO)[C@@H](O)[C@H]3O)c[nH]c12`, the pKi in series [1] is 5.59; in series [2], 7.48.
In the case of `OC[C@H]1N[C@@H](c2cnc[nH]2)[C@H](O)[C@@H]1O`, the pKi in series [3] was 5.60.
Same read-out and setting: then `OC[C@H]1N[C@@H](c2ccccc2)[C@H](O)[C@@H]1O`, with 6.77.
For the molecule `O=c1[nH]ccn2c([C@@H]3N[C@H](CO)[C@@H](O)[C@H]3O)cnc12`, the pKi in series [1] was 3.37.
Regarding `Nc1nc2c(ncn2COCCO)c(=O)[nH]1` [ACYCLOVIR], the pKi in series [4] is 4.04.
A word on the bioavailability: it is dose-corrected exposure relative to a reference, in per cent. The low end stands for little systemic uptake, the high end for much systemic uptake. Turning to `O=c1[nH]cnc2c([C@@H]3N[C@H](CO)[C@@H](O)[C@H]3O)c[nH]c12` [FORODESINE], in series [5], the bioavailability worked out at 63%.
In series [3], `OC[C@H]1NC[C@H](O)[C@@H]1O` [IMINORIBITOL] showed a pKi of 5.00.
Same read-out and setting: then `O=c1[nH]cnc2c1ncn2[C@@H]1O[C@H](CO)[C@@H](O)[C@H]1O` [INOSINE], with 3.42.
`Nc1nc2c(Cc3cccnc3)c[nH]c2c(=O)[nH]1` [PELDESINE] showed a pKi in series [4] of 7.87.
